Measured values from patent US20150196533A1, “METHOD FOR CONCURRENT TREATMENT OF PAIN AND DEPRESSION” (The General Hospital Corporation, priority 2012, published 2015).
Entries after “also recorded” stand apart in the source; their conditions may differ.

Experiments:
Type in all cases: in vivo, rat
IDO1/TPH2 = IDO1/TPH2 expression in the hippocampus of CFA rats (Example 11); conditions: intraperitoneally once per day, day 1 to day 14 (1-MT 10 mg, fluoxetine 5 mg); tissue taken 7 days after discontinuation
Text: Rats were divided into five groups: 1) sham-operated rats treated with a vehicle (Sham), 2) CFA-induced hindpaw pain treated with vehicle (C-V). […] Each treatment was given intraperitoneally once per day from day 1 to day 14. Hippocampal tissue samples were taken after the last behavioral tests at 7 days after discontinuation of the corresponding drug treatment.

[1] = test system: Wistar rats with CFA-induced arthritis; assay: Nociceptive tests (von Frey, Hargreaves) in rats with CFA-induced hindpaw monoarthritis; conditions: for nociceptive behavior (mechanical allodynia, ipsilateral hindpaw; FIG. 5A): intraperitoneal, 10 mg/day, twice daily for 14 consecutive days after CFA
Procedure: Hindpaw monoarthritis was induced by the injection of CFA (50 μl) into a unilateral tibio-tarsal joint cavity under brief isoflurane anesthesis (Butler, S. H., et al, and Weil-Fugazza, J. 1992. A limited arthritic model for chronic pain studies in the rat. Pain 48:73-81). Animals in sham groups received the injection of 50 μl Incomplete Freund's Adjuvant.
(§1) Under brief isoflurane anesthesia, a guide cannula (26 gauge, Plasticsone) was implanted just above the hippocampus (AP: −3.6 mm; left: +2.0 mm from Bregma; depth: −4.0 mm from skin) (Paxinos, G., and Watson, C. 1998. The rat brain in stertaxic coordinates. New York: Academic Press). An injection needle (33 gauge, Plasticsone) was inserted through the guide cannula and drug solution or vehicle (0.5 μl) was slowly injected over 5 min using a Hamilton syringe. Locations of the cannula placement were confirmed at the time of tissue harvest (data not shown).
(§2) Animals were habituated to a test setting (30-min session) for three consecutive days. Thermal withdrawal threshold was assessed using the Hargreaves' apparatus and method (Hargreaves, K., et al., 1988. A new and sensitive method for measuring thermal nociception in cutaneous hyperalgesia. Pain 32:77-88). Mechanical withdrawal threshold was assessed using von Frey filaments (Tal, M., and Bennett, G. J. 1994. Extra-territorial pain in rats with a peripheral mononeuropathy: mechano-hyperalgesia and mechano-allodynia in the territory of an uninjured nerve. Pain 57:375-382).

[2] = test system: Wistar rats with CFA-induced arthritis; assay: Depressive behavior (forced swim test) in rats with CFA-induced hindpaw monoarthritis; conditions: for depressive behavior (immobility time in FST; FIG. 6H): 100 mg/kg intraperitoneally once on day 14, same arthritic rats, P>0.05
IL-6 = assay: Plasma IL-6 level (ELISA) in rats with nociceptive and depressive behavior; conditions: systemic treatment; rats with both nociceptive and depressive behavior; data not shown
Procedure: Under pentobarbital anesthesia, whole blood was collected from the left ventricle of the heart and placed in a serum collection tube (BD Vacutainer). Blood clots were formed after 30-60 min at room temperature and the tube was centrifuged for 10 min at 12,000 rpm. ELISA Quantikine kit (R&D Systems) and IDO ELISA kit (TSZ ELISA) was used according to the manufacturer's instructions. Optical density of samples was read at wavelengths of 450 & 570 nm using a microplate reader (Synergy HT, Bio-TEK®). A standard curve, provided by the manufacturer, was generated for each set of samples assayed and the concentration of each sample was obtained according to the standard curve.

naive rats = assay: Intra-hippocampal microinjection in naive rats: nociceptive and depressive behavior
Procedure: as §1, §2
FST was performed according to the original method by Porsolt et al (Porsolt, R. D., Le, P. M., and Jalfre, M. 1977. Depression: a new animal model sensitive to antidepressant treatments. Nature 266:730-732). The total duration of immobility (non-swimming) within a 5-min session was recorded as immobility scores (in seconds) and compared among groups.

IDO1 [3] = assay: Intra-hippocampal microinjection in naive rats: hippocampal IDO1 mRNA (real-time PCR); conditions: intra-hippocampal microinjection alone, naive rats; P>0.05
Procedure: as §1
Total RNA was isolated from hippocampal samples using TRIzol reagent (Invitrogen). Four μg of total RNA was used to synthesize the first strand cDNA using SuperScript III kit (Invitrogen). Four μl of cDNA was put into 20 μl vessel with 1 μl of 20× TaqMan Gene Expression Assay. Taqman Gene Expression Assays (Applied Biosystems) containing primers and a Taqman probe were used to quantify each gene of interest. The genes examined were IL-6 (Rn01410330 m1, M26744.1) and IDO1 (Rn00576778 m1, AF312699.1) for rats and IL-6 (Mm00446190 m1, X54542.1) and IDO1 (Mm00492586 m1, M69109.1) for mice. […] The RNA expression of GAPDH was measured as control.

IDO1 [4] = assay: Hippocampal IDO1 expression (Western blot, real-time PCR) in rats with CFA-induced arthritis; conditions: 100 mg/kg intraperitoneally once on day 14, same arthritic rats, P>0.05
Procedure: Rats were sacrificed under pentobarbital anesthesia.
Total RNA was isolated from hippocampal samples using TRIzol reagent (Invitrogen). Four μg of total RNA was used to synthesize the first strand cDNA using SuperScript III kit (Invitrogen). Four μl of cDNA was put into 20 μl vessel with 1 μl of 20× TaqMan Gene Expression Assay. Taqman Gene Expression Assays (Applied Biosystems) containing primers and a Taqman probe were used to quantify each gene of interest. […] The reaction was performed in duplicate with the following conditions: denaturing at 95° C. for 30 s, annealing at 60° C. for 2 min, extension at 68° C. for 2 min for 40 cycles using a 7300 Real-Time PCR System (Applied Biosystems). The RNA expression of GAPDH was measured as control.

[5] = 100 mg/kg intraperitoneally once on day 14, examined 1 hr after, arthritic rats, P<0.05 vs vehicle

CNCCC(Oc1ccc(C(F)(F)F)cc1)c1ccccc1 (stereo not shown) [SSRI, fluoxetine]
IDO1/TPH2 ratio in the hippocampus (IDO1/TPH2): did not alter the IDO1/TPH2 ratio

Cn1cc(C[C@H](N)C(=O)O)c2ccccc21 [1-MT, L-1-methyl-tryptophan]
nociceptive behavior (thermal hyperalgesia, ipsilateral hindpaw; FIG. 5C) ([1]; intra-hippocampal microinjection, 5 μg in 0.5 μl, once daily x 7 d, contralateral to arthritic hindpaw, P<0.05): attenuated thermal hyperalgesia
behaviors in sham control rats ([1]; intra-hippocampal microinjection): without changing behaviors in sham control rats
nociceptive behavior (mechanical allodynia, ipsilateral hindpaw; FIG. 5A) ([1]; arthritic rats, P<0.05 vs vehicle): significantly attenuated
nociceptive behavior (mechanical allodynia, ipsilateral hindpaw; FIG. 5A) ([1]; arthritic rats, P<0.05 vs vehicle, listed as L-1-MT): attenuated mechanical allodynia
behaviors in sham control rats ([1]; systemic (intraperitoneal) treatment alone): did not alter behaviors in sham controls rats
depressive behavior (immobility time in forced swimming test; FIG. 5D) ([2]; intra-hippocampal microinjection, 5 μg in 0.5 μl, once daily x 7 d, P<0.05): attenuated; also recorded: reduced the immobility time in forced swimming test
depressive behavior (immobility time in forced swimming test; FIG. 5B) ([2]; intraperitoneal, 10 mg/day, twice daily for 14 consecutive days after CFA, arthritic rats, P<0.05 vs vehicle): significantly attenuated; also recorded: improved the immobility time in forced swimming test
elevation of the plasma IL-6 level (IL-6): did not prevent elevation of the plasma IL-6 level
IDO up-regulation in the hippocampus (IDO1/TPH2): prevented the IDO up-regulation

N#C/C(=C/c1ccc(O)c(O)c1)C(=O)NCc1ccccc1 [AG490]
IL-6 effects (mechanical allodynia, thermal hyperalgesia, depressive behavior, hippocampal IDO1 mRNA; FIG. 9E-H) (naive rats; 5 μg once daily x 7 d co-administered with IL-6 into the hippocampus of naive rats, each P<0.05): prevented; also recorded: blocked
baseline behavioral response (naive rats; intra-hippocampal microinjection alone, naive rats, P>0.05): had no effect
IDO1 mRNA expression (IDO1 [3]): had no effect

CC(=O)Nc1ccc(O)cc1 [acetaminophen, N-acetyl-para-aminophen]
mechanical allodynia (ipsilateral; FIG. 6F) [1, 5]: significantly reduced; also recorded: attenuated
thermal hyperalgesia (FIG. 6G) [1, 5]: significantly reduced; also recorded: attenuated
depressive behavior (immobility time in FST; FIG. 6H) [2]: did not acutely reverse depressive behavior
depressive behavior (immobility time in FST; FIG. 6H) ([2]; listed as APAP): did not change the immobility time in FST
hippocampal IDO1 mRNA level (FIG. 6I) (IDO1 [4]): nor did it alter the IDO1 mRNA level
hippocampal IDO1 mRNA level (FIG. 6I) (IDO1 [4]; listed as APAP): not reversed
